Each structure is given as a SMILES string. Values after ≈ are worked out from the molar mass of the structure shown.

For the assay, the target named is T1, rat intestinal alpha glucosidase.
T1 construct: gene Si; rat intestinal alpha-glucosidase preparation
Description: alpha-glucosidase inhibition assay. The class given is biochemical. As to conditions: standard; rat intestinal enzyme.

In the case of `C[C@H]1O[C@H](O[C@H]2[C@H](O)[C@@H](O)[C@@H](O[C@H]3[C@H](O)[C@@H](O)C(O)O[C@@H]3CO)O[C@@H]2CO)[C@H](O)[C@@H](O)[C@@H]1N[C@H]1C=C(CO)[C@@H](O)[C@H](O)[C@H]1O` (stereo partly shown) [acarbose], the IC50 (in general, the concentration needed to halve the response being measured) came to 49.78 ± 1.45 µg/mL (≈ 77.1 µM).

Values taken from paper PMC4153544, “Antidiabetic Property of Symplocos cochinchinensis Is Mediated by Inhibition of Alpha Glucosidase and Enhanced Insulin Sensitivity” (PLoS ONE, 2014).
